In ChEMBL document CHEMBL1201862, “PubChem BioAssay data set” (2004):
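Interpolation was linear, between the two tested concentrations surrounding the appropriate level; five concentrations were tested over 48 hours in 96-well plates. At the GI50, growth is halved.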 Active and inactive are the calls of the source. No stated cut-off is given here; in the data, active = GI50 up to about 1.1 µM and inactive = higher.

Legend:
Assay in all cases: NCI anticancer screen, dose series, 48 h
HCT-116 = test system: HCT-116
HCT-15 = test system: HCT-15
SNB-75 = test system: SNB-75
UACC-257 = test system: UACC-257
SW-620 = test system: SW-620
NCI-H522 = test system: NCI-H522
MDA-MB-231 = test system: MDA-MB-231
SNB-19 = test system: SNB-19
SK-OV-3 = test system: SK-OV-3
T47D = test system: T47D
SK-MEL-28 = test system: SK-MEL-28
SF-539 = test system: SF-539
NCI-H23 = test system: NCI-H23
EKVX = test system: EKVX
OVCAR-3 = test system: OVCAR-3
IGROV-1 = test system: IGROV-1
SF-268 = test system: SF-268
HOP-62 = test system: HOP-62
BT-549 = test system: BT-549
CAKI-1 = test system: CAKI-1
OVCAR-4 = test system: OVCAR-4
SF-295 = test system: SF-295
SN12C = test system: SN12C
U-251 = test system: U-251
SK-MEL-2 = test system: SK-MEL-2
NCI/ADR-RES = test system: NCI/ADR-RES
NCI-H460 = test system: NCI-H460
HT-29 = test system: HT-29
MDA-MB-435 = test system: MDA-MB-435
KM12 = test system: KM12
HL-60 = test system: HL-60
MCF7 = test system: MCF7
PC-3 = test system: PC-3
SR = test system: SR
TK-10 = test system: TK-10
A498 = test system: A498
A549 = test system: A549
Malme-3M = test system: Malme-3M
RXF 393 = test system: RXF 393
CCRF-CEM = test system: CCRF-CEM
SK-MEL-5 = test system: SK-MEL-5
MOLT-4 = test system: MOLT-4
786-0 = test system: 786-0
MDA-N = test system: MDA-N
NCI-H226 = test system: NCI-H226
ACHN = test system: ACHN
LOX IMVI = test system: LOX IMVI
DU-145 = test system: DU-145
M14 = test system: M14
UO-31 = test system: UO-31
OVCAR-8 = test system: OVCAR-8
OVCAR-5 = test system: OVCAR-5
K562 = test system: K562
COLO 205 = test system: COLO 205
Hs-578T = test system: Hs-578T
RPMI-8226 = test system: RPMI-8226
HOP-92 = test system: HOP-92
UACC-62 = test system: UACC-62
HCC 2998 = test system: HCC 2998

O=c1[nH]c2ccc(CC(=S)N3CCN(c4ccccc4)CC3)cc2o1
GI50 (HCT-116): > 80.5 µM (inactive) | GI50 (HCT-15): 66.2 µM | GI50 (SNB-75): > 34 µM (inactive) | GI50 (UACC-257): > 100 µM (inactive) | GI50 (SW-620): > 100 µM (inactive) | GI50 (NCI-H522): 86.7 µM (inactive) | GI50 (MDA-MB-231): > 100 µM (inactive) | GI50 (SNB-19): > 100 µM (inactive) | GI50 (SK-OV-3): > 100 µM (inactive) | GI50 (T47D): > 100 µM (inactive) | GI50 (SK-MEL-28): > 100 µM (inactive) | GI50 (SF-539): > 67.8 µM (inactive) | GI50 (NCI-H23): > 100 µM (inactive) | GI50 (EKVX): 37.9 µM (inactive) | GI50 (OVCAR-3): > 100 µM (inactive) | GI50 (IGROV-1): > 90.8 µM (inactive) | GI50 (SF-268): > 76.4 µM (inactive) | GI50 (HOP-62): > 88.5 µM (inactive) | GI50 (BT-549): > 100 µM (inactive) | GI50 (CAKI-1): 97.9 µM (inactive) | GI50 (OVCAR-4): > 100 µM (inactive) | GI50 (SF-295): > 89.3 µM (inactive) | GI50 (SN12C): > 100 µM (inactive) | GI50 (U-251): 41.2 µM (inactive) | GI50 (SK-MEL-2): > 100 µM (inactive) | GI50 (NCI/ADR-RES): > 44.5 µM (inactive) | GI50 (NCI-H460): > 100 µM (inactive) | GI50 (HT-29): > 100 µM (inactive) | GI50 (MDA-MB-435): 54.5 µM (inactive) | GI50 (KM12): 63.4 µM (inactive) | GI50 (HL-60): 6.18 µM (inactive) | GI50 (MCF7): > 100 µM (inactive) | GI50 (PC-3): > 100 µM (inactive) | GI50 (SR): > 58.3 µM (inactive) | GI50 (TK-10): > 100 µM (inactive) | GI50 (A498): > 30 µM (inactive) | GI50 (A549): 85.3 µM (inactive) | GI50 (Malme-3M): 4.78 µM (inactive) | GI50 (RXF 393): > 100 µM (inactive) | GI50 (CCRF-CEM): 71.3 µM (inactive) | GI50 (SK-MEL-5): 48.9 µM (inactive) | GI50 (MOLT-4): > 80.7 µM (inactive) | GI50 (786-0): > 90.2 µM (inactive) | GI50 (MDA-N): > 49.9 µM (inactive) | GI50 (NCI-H226): > 42 µM (inactive) | GI50 (ACHN): > 100 µM (inactive) | GI50 (LOX IMVI): > 100 µM (inactive) | GI50 (DU-145): > 100 µM (inactive) | GI50 (M14): > 100 µM (inactive) | GI50 (UO-31): > 100 µM (inactive) | GI50 (OVCAR-8): > 79.1 µM (inactive) | GI50 (OVCAR-5): > 100 µM (inactive) | GI50 (K562): 53.2 µM (inactive) | GI50 (COLO 205): 97.7 µM (inactive) | GI50 (Hs-578T): > 54.2 µM (inactive) | GI50 (RPMI-8226): > 66.5 µM (inactive) | GI50 (HOP-92): 84.9 µM (inactive) | GI50 (UACC-62): > 66.4 µM (inactive) | GI50 (HCC 2998): > 100 µM (inactive)

C=C(C)[C@@H]1CC[C@]2(C(=O)OC3OC(COC4OC(CO)C(OC5OC(C)C(O)C(O)C5O)C(O)C4O)C(O)C(O)C3O)CC[C@]3(C)[C@H](CC[C@@H]4[C@@]5(C)CC[C@H](O)[C@@](C)(CO)[C@@H]5CC[C@]43C)[C@@H]12 (some centres not stated)
GI50 (HCT-116): 2.18 µM (inactive) | GI50 (HCT-15): 2.39 µM | GI50 (SNB-75): 4.39 µM (inactive) | GI50 (UACC-257): 4.63 µM (inactive) | GI50 (SW-620): 2.16 µM (inactive) | GI50 (NCI-H522): 2.66 µM (inactive) | GI50 (MDA-MB-231): 3.56 µM (inactive) | GI50 (SNB-19): 2.72 µM (inactive) | GI50 (SK-OV-3): 3.24 µM (inactive) | GI50 (T47D): 3.4 µM (inactive) | GI50 (SK-MEL-28): 5.79 µM (inactive) | GI50 (SF-539): 2.58 µM (inactive) | GI50 (NCI-H23): 1.04 µM (active) | GI50 (EKVX): 2.2 µM (inactive) | GI50 (OVCAR-3): 1.84 µM (inactive) | GI50 (IGROV-1): 2.74 µM (inactive) | GI50 (SF-268): 2.93 µM (inactive) | GI50 (HOP-62): 3.61 µM (inactive) | GI50 (BT-549): 3.06 µM (inactive) | GI50 (CAKI-1): 3.4 µM (inactive) | GI50 (OVCAR-4): 3.44 µM (inactive) | GI50 (SF-295): 1.27 µM (inactive) | GI50 (SN12C): 3.5 µM (inactive) | GI50 (U-251): 1.64 µM (inactive) | GI50 (SK-MEL-2): 2.39 µM (inactive) | GI50 (NCI/ADR-RES): 2.91 µM (inactive) | GI50 (NCI-H460): 1.37 µM (inactive) | GI50 (HT-29): 3.05 µM (inactive) | GI50 (MDA-MB-435): 3.51 µM (inactive) | GI50 (KM12): 0.625 µM (active) | GI50 (HL-60): 0.0986 µM (active) | GI50 (MCF7): 3.02 µM (inactive) | GI50 (PC-3): 2.6 µM (inactive) | GI50 (SR): 0.755 µM (active) | GI50 (TK-10): 3.49 µM (inactive) | GI50 (A498): 2.48 µM (inactive) | GI50 (A549): 0.986 µM (active) | GI50 (Malme-3M): 3.78 µM (inactive) | GI50 (RXF 393): 5.06 µM (inactive) | GI50 (CCRF-CEM): 0.043 µM (active) | GI50 (SK-MEL-5): 2.84 µM (inactive) | GI50 (MOLT-4): 0.39 µM (active) | GI50 (786-0): 3.98 µM (inactive) | GI50 (MDA-N): 4.58 µM (inactive) | GI50 (NCI-H226): 3.16 µM (inactive) | GI50 (ACHN): 2 µM (inactive) | GI50 (LOX IMVI): 2.58 µM (inactive) | GI50 (DU-145): 4.8 µM (inactive) | GI50 (M14): 3.48 µM (inactive) | GI50 (UO-31): 3.93 µM (inactive) | GI50 (OVCAR-8): 3.97 µM (inactive) | GI50 (OVCAR-5): 6.81 µM (inactive) | GI50 (K562): 0.802 µM (active) | GI50 (COLO 205): 1.63 µM (inactive) | GI50 (Hs-578T): 3.64 µM (inactive) | GI50 (RPMI-8226): 0.929 µM (active) | GI50 (HOP-92): 3.1 µM (inactive) | GI50 (UACC-62): 1.99 µM (inactive) | GI50 (HCC 2998): 2.56 µM (inactive)

Nc1ccc2c(=S)c3ccccc3[nH]c2c1
GI50 (HCT-116): 24.3 µM (inactive) | GI50 (HCT-15): 24.2 µM | GI50 (SNB-75): 18.7 µM (inactive) | GI50 (UACC-257): 44.5 µM (inactive) | GI50 (SW-620): 32.5 µM (inactive) | GI50 (NCI-H522): 46.8 µM (inactive) | GI50 (MDA-MB-231): 28.2 µM (inactive) | GI50 (SNB-19): 41.6 µM (inactive) | GI50 (SK-OV-3): 22.2 µM (inactive) | GI50 (T47D): 20.1 µM (inactive) | GI50 (SK-MEL-28): 43.1 µM (inactive) | GI50 (SF-539): 33.2 µM (inactive) | GI50 (NCI-H23): 22.9 µM (inactive) | GI50 (EKVX): 36.5 µM (inactive) | GI50 (OVCAR-3): 28.2 µM (inactive) | GI50 (IGROV-1): 28 µM (inactive) | GI50 (SF-268): 65.9 µM (inactive) | GI50 (HOP-62): 24.3 µM (inactive) | GI50 (BT-549): 48.4 µM (inactive) | GI50 (CAKI-1): 9.23 µM (inactive) | GI50 (OVCAR-4): 62.8 µM (inactive) | GI50 (SF-295): 26.4 µM (inactive) | GI50 (SN12C): > 77.6 µM (inactive) | GI50 (U-251): 28.4 µM (inactive) | GI50 (SK-MEL-2): 51.9 µM (inactive) | GI50 (NCI/ADR-RES): 43.3 µM (inactive) | GI50 (NCI-H460): 27.4 µM (inactive) | GI50 (HT-29): 19.3 µM (inactive) | GI50 (MDA-MB-435): 42.2 µM (inactive) | GI50 (KM12): 44.4 µM (inactive) | GI50 (HL-60): 16.2 µM (inactive) | GI50 (MCF7): 20.1 µM (inactive) | GI50 (PC-3): 34 µM (inactive) | GI50 (SR): 25.1 µM (inactive) | GI50 (TK-10): > 53.6 µM (inactive) | GI50 (A498): 61.7 µM (inactive) | GI50 (A549): 23.3 µM (inactive) | GI50 (Malme-3M): 40.3 µM (inactive) | GI50 (RXF 393): 39.6 µM (inactive) | GI50 (CCRF-CEM): 18.8 µM (inactive) | GI50 (SK-MEL-5): 33.5 µM (inactive) | GI50 (MOLT-4): 18.7 µM (inactive) | GI50 (786-0): 38.5 µM (inactive) | GI50 (MDA-N): 46.8 µM (inactive) | GI50 (NCI-H226): 24.1 µM (inactive) | GI50 (ACHN): 38.1 µM (inactive) | GI50 (LOX IMVI): 26.4 µM (inactive) | GI50 (DU-145): > 72.1 µM (inactive) | GI50 (M14): 20.2 µM (inactive) | GI50 (UO-31): 27.9 µM (inactive) | GI50 (OVCAR-8): 52.5 µM (inactive) | GI50 (OVCAR-5): > 61.2 µM (inactive) | GI50 (K562): 16.1 µM (inactive) | GI50 (COLO 205): 24.5 µM (inactive) | GI50 (Hs-578T): 55.6 µM (inactive) | GI50 (RPMI-8226): 13.8 µM (inactive) | GI50 (HOP-92): 26.2 µM (inactive) | GI50 (UACC-62): 31.7 µM (inactive) | GI50 (HCC 2998): 53.5 µM (inactive)
